The text below walks through data of patent US8242118B2, “Arylsulfonamide derivatives for use as CCR3 antagonists in the treatment of inflammatory and immunological disorders” (Axikin Pharmaceuticals Inc., priority 2001, dated 2012).

SMILES strings stand for the structures. Structures can show the parent of a compound that is named as a salt.

The target of data set [1] is T1, Human CCR3 (Homo sapiens, UniProt P51677).
T1 construct: The cloned CCR3 cDNA was constructed with pcDNA3 vector and transfected into a IC562 cell line; expressed in transfected cells
T1 sequence (P51677 1-355): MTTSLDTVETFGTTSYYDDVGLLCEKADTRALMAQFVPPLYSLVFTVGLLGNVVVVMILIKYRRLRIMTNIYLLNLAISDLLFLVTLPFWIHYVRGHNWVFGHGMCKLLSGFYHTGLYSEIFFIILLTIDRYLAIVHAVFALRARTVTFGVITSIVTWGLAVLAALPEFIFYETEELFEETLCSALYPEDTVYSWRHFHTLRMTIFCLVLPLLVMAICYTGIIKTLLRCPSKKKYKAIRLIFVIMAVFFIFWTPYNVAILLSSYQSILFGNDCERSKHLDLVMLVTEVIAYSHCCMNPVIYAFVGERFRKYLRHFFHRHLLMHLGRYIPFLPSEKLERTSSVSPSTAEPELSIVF
Nature of the data set: Calcium mobilization assay, eotaxin-stimulated. The data set is classed as cell-based. To be noted: human CCR3-transformed K562 cells, 10 nM eotaxin; compounds of about 40 to 90% purity; read-out: Activity grade Ca2+ (IC50 class). How it is done: • Human CCR3-transformed K562 cells were used. The cloned CCR3 cDNA was constructed with pcDNA3 vector and transfected into a IC562 cell line. The human CCR3-transformed K562 cells were maintained in RPMI-1640 (Cat.#22400-089, Life Technologies) supplemented with 10% FCS (Cat.#A-1115-L, Hyclone), 55 μM 2-mercaptoethanol (Cat.#21985-023, Life Technologies), 1 mM sodium pyruvate (Cat.#11360-070, Life Technologies), 100 units/ml of penicillin G and 100 μg/ml of streptomycin (Cat.#15140-122, Life Technologies), and 0.4 mg/ml of Geneticin (Cat.#10131-035, Life Technologies)(hereinafter called “culture medium”). Before the receptor binding assay, cells were pretreated with 5 mM sodium butyrate (Cat.#193-01522, Wako)-containing the culture medium (2×10^5 cells/ml) for 20-24 hours to increase the expression of CCR3. (2) Receptor Binding Assay (RBA) • Butyrate-pretreated cells, suspended in binding buffer (25 mM HEPES pH 7.6, 1 mM CaCl2, 5 mM MgCl2, 0.5% BSA, 0.1% NaN3) at a cell density of 2×10^6 cells/ml, were added into 60 μl/well in the 96-well round bottom polypropylene plate (Cat.#3365, Costar). Compounds, diluted with the binding buffer (4-times higher concentration of the final concentration), were added into 30 μl/well in the polypropylene plate. [^125I]-labeled human eotaxin (Cat.#IM290, Amersham Pharmacia Biotech), diluted with the binding buffer at the concentration of 0.4 nM (final concentration; 0.1 nM), was added into 30 μl/well in the polypropylene plate. Total 120 μl/well of binding reaction mixture (60 μl/well of cell suspension, 30 μl/well of compound solution, and 30 μl/well of [^125I]-labeled eotaxin) were incubated in the polypropylene plate for 1 hour at room temperature after the incubation, 100 μl/well of the reaction mixture was transferred to a filtration plate (Cat.#MAFB-N0B, Millipore), and washed with the washing buffer (25 mM HEPES pH 7.6, 1 mM CaCl2, 5 mM MgCl2, 0.5% BSA, 0.1% NaN3, 0.5 M NaCl) twice. The 96-well filtration plate was pretreated with 100 μl/well of 0.5% polyethylenimine (Cat.#P-3143, Sigma) for 2-4 hours at room temperature and washed with the washing buffer twice before use. The non-specific binding was determined by parallel incubation in the presence of 500 nM of non-labeled eotaxin (Cat.#23209, Genzyme Techne). The radioactivities remained on the filter were measured by liquid scintillation counter (TopCount™, Packard) after an addition of 45 μl/well of scintillant (Microscint20, Cat.#6013621, Packard). The inhibition percent at each concentration of compound was calculated, and IC50 values were determined from the inhibition curve. [Determination of IC50 Values of Compounds in Calcium Mobilization Assay] (IC50 Ca2+) (1) Cell • Human CCR3-transformed K562 cells were used. The human CCR3-transformed K562 cells were maintained in RPMI-1640 supplemented with 10% FCS, 55 μM 2-mercaptoethanol (Cat.#21985-023, Life Technologies), 1 mM sodium pyruvate, 100 units/ml of penicillin G and 100 μg/ml of streptomycin and 0.4 mg/ml of Geneticin. Before the calcium mobilization assay, cells were pretreated with 5 mM sodium butyrate-containing the culture medium (2×10^5 cells/ml) for 20-24 hours to increase the expression of CCR3. (2) Calcium Mobilization Assay • Butyrate-pretreated cells were loaded with Fluo-3AM (Cat.#F-1242, Molecular Probes) in loading buffer (Hanks' solution Cat.#05906 Nissui, 20 mM HEPES pH 7.6, 0.1% BSA, 1 mM probenecid Cat.#P-8761 Sigma, 1 μM Fluo-3AM, 0.01% pluronic F-127 Cat.#P-6866 Molecular Probes) at a cell density of 1×10^7 cells/ml. Then, cells were washed with calcium assay buffer (Hanks' solution Cat.#05906 Nissui, 20 mM HEPES pH 7.6, 0.1% BSA, 1 mM Probenecid Cat.#P-8761 Sigma). The cell suspension (3.3×10^6 cells/ml) was added into 60 μl/well in the 96-well clear bottom black plate (Cat.#3904, Costar). Compounds, diluted (5-times concentration of the final concentration) with the calcium assay buffer, were added into 20 μl/well in the plate 10 minutes before assay. […]

One may read the melting point as the temperature of the solid-liquid transition. `COC(=O)c1ccc(Oc2cc(C)cc(C)c2)c(S(=O)(=O)N2CCNCC2)c1` (as salt: hydrochloride) [Example 15-2, methyl 4-(3,5-dimethylphenoxy)-3-(1-piperazinylsulfonyl)benzoate hydrochloride] yielded a melting point of 120 °C. Compound `Cc1cc(C)cc(Oc2ccc(C(=O)NCCC(N)=O)cc2S(=O)(=O)N2CCNCC2)c1` (as salt: hydrochloride) [Example 22-2, N-[4-(3,5-dimethylphenoxy)-3-(1-piperazinylsulfonyl)benzoyl]-beta-alanineamide hydrochloride] showed a melting point of 121 °C. In turn, `Cc1cc(C)cc(Oc2ccc(-c3nnn[nH]3)cc2S(=O)(=O)N2CCNCC2)c1` (as salt: hydrochloride) [Example 22-4, 1-{[2-(3,5-dimethylphenoxy)-5-(1H-tetraazol-5-yl)phenyl]sulfonyl}piperazine hydrochloride] yielded a melting point of 213 °C.

For the compound `N#Cc1ccc(Oc2cc(Cl)cc(Cl)c2)c(S(=O)(=O)N2CCCNCC2)c1` (as salt: hydrochloride) [Example 12-1, 3-(1,4-diazepan-1-ylsulfonyl)-4-(3,5-dichlorophenoxy)benzonitrile hydrochloride], the melting point fell in the range of 278 to 280 °C. Still for that read-out and setting: as for `Cc1cc(C)cc(Oc2cc([N+](=O)[O-])ccc2S(=O)(=O)N2CCNCC2)c1` (as salt: hydrochloride) [Example 23-1, 1-{2-(3,5-dimethylphenoxy)-4-nitrophenylsulfonyl}piperazine hydrochloride], the figure is 284 °C; as for `COc1ccc(Oc2cc(C)cc(C)c2)c(S(=O)(=O)N2CCNCC2)c1` (as salt: hydrochloride) [Example 6-2], 175 to 177 °C; as for `Cc1cc(C)cc(Oc2ccc(C(=O)NCCC#N)cc2S(=O)(=O)N2CCNCC2)c1` (as salt: hydrochloride) [Example 22-1, N-(2-cyanoethyl)-4-(3,5-dimethylphenoxy)-3-(1-piperazinylsulfonyl)benzamide hydrochloride], 101 °C. The same measure, in the same setting: as for `N#Cc1ccc([S+]([O-])c2cc(Cl)cc(Cl)c2)c(S(=O)(=O)N2CCNCC2)c1` (stereo not drawn) (as salt: hydrochloride) [Example 19-1, 4-[(3,5-dichlorophenyl)sulfinyl]-3-(1-piperazinylsulfonyl)benzonitrile hydrochloride], the figure is 219 °C; as for `Cc1cc(C)cc(Nc2ccc([N+](=O)[O-])cc2S(=O)(=O)N2CCNCC2)c1` (as salt: hydrochloride) [Example 3-1, N-(3,5-dimethyl-phenyl)-4-nitro-2-(1-piperazinylsulfonyl)aniline dihydrochloride], 175 to 179 °C; as for `CN(C)C(=O)c1ccc(Oc2cc(Cl)cc(Cl)c2)c(S(=O)(=O)N2CCNCC2)c1` (as salt: hydrochloride) [Example 10-1, 4-(3,5-dichlorophenoxy)-N,N-dimethyl-3-(1-piperazinylsulfonyl)benzamide hydrochloride], 197 to 199 °C. `N#Cc1ccc(Oc2cc(Cl)cc(Cl)c2)c(S(=O)(=O)N2CCNCC2C(=O)O)c1` (stereo not drawn) [Example 13-9] showed a melting point of 262 °C.

In turn, `Cc1cc(C)cc(Oc2ccc([N+](=O)[O-])cc2S(=O)(=O)N2CCNCC2)c1` (as salt: hydrochloride) [Example 1-2, 1-{[2-(3,5-dimethylphenoxy)-5-nitrophenyl]sulfonyl}piperazine hydrochloride] returned a melting point of 264 to 266 °C. The compound `Cc1cc(C)cc(Oc2ccc(CO)cc2S(=O)(=O)N2CCNCC2)c1` (as salt: hydrochloride) [Example 16-1, [4-(3,5-dimethylphenoxy)-3-(1-piperazinylsulfonyl)phenyl]methanol hydrochloride] registered a melting point of 160 °C. Compound `N#Cc1ccc(Oc2cc(Cl)cc(Cl)c2)c(S(=O)(=O)N2CCNCC2)c1` [Example 6-4] had a melting point of 179 to 181 °C. `Cc1cc(C)cc(Oc2ccncc2S(=O)(=O)N2CCNCC2)c1` (as salt: hydrochloride) [Example 25-1, 1-{[4-(3,5-dimethylphenoxy)-3-pyridinyl]sulfonyl}piperazine hydrochloride] displayed a melting point of 220 °C. Still for that read-out and setting: under `Cc1cc(C)cc(Oc2ccc(Cl)cc2S(=O)(=O)N2CCNCC2)c1` (as salt: hydrochloride) [Example 5-2, 1-{[5-chloro-2-(3,5-dimethylphenoxy)phenyl]sulfonyl}piperazine hydrochloride] stands 202 to 204 °C; under `N#Cc1ccc(S(=O)(=O)c2cc(Cl)cc(Cl)c2)c(S(=O)(=O)N2CCNCC2)c1` (as salt: hydrochloride) [Example 18-1, 4-[(3,5-dichlorophenyl)sulfonyl]-3-(1-piperazinylsulfonyl)benzonitrile hydrochloride], 258 °C; under `CN(c1cc(Cl)cc(Cl)c1)c1ccc(C#N)cc1S(=O)(=O)N1CCNCC1` (as salt: hydrochloride) [Example 21-1, 4-[(3,5-dichlorophenyl)(methyl)amino]-3-(1-piperazinylsulfonyl)benzonitrile hydrochloride], 163 °C. Same read-out and setting: under `Cc1cc(C)cc(Oc2ccc([N+](=O)[O-])cc2S(=O)(=O)N2CCNCC2)c1.O=C(O)C(F)(F)F` [Example 1-3] stands 120 to 125 °C. On to `N#Cc1ccc(Sc2cc(Cl)cc(Cl)c2)c(S(=O)(=O)N2CCNCC2)c1` (as salt: hydrochloride) [Example 17-1, 4-[(3,5-dichlorophenyl)sulfanyl]-3-(1-piperazinylsulfonyl)benzonitrile hydrochloride], for which the melting point was 82 °C. Take `Cl.N#Cc1ccc(Sc2cc(Cl)cc(Cl)c2)c(S(=O)(=O)N2CCCNCC2)c1` [Example 17-3]: the melting point was 277 to 278 °C. Same read-out and setting: as for `N#Cc1ccc(Oc2cc(Cl)cc(Cl)c2)c(S(=O)(=O)N2C[C@H]3CCCN[C@H]3C2)c1` [Example 13-6], the figure is 164 to 165 °C.

What is called IC50 is the concentration at which inhibition is half-maximal. As to `O=[N+]([O-])c1ccc(Nc2cccc(Cl)c2)c(S(=O)(=O)N2CCNCC2)c1` [Example 3-7], the IC50 in data set [1] is less than 1000 nM. Still for that read-out and setting: under `O=C(O)c1cc(S(=O)(=O)N2CCNCC2)c(Oc2cc(Cl)cc(Cl)c2)cc1Cl` [Example 14-4] stands 1000 to 10000 nM.
